The values that follow come from patent US20140294994A1, “PHARMACEUTICAL COMPOSITION FOR ELIMINATION OF CANCER STEM CELLS” (priority 2011, published 2014).

Type in all cases: cell-based, human
Assay [1] relates to CL141 cells. Briefly: Annexin V/PI staining apoptosis analysis. The settings on record: 48 hours, versus control cells. As for the experimental part: […]. Annexin V/PI staining was performed after treatment with different dosages of trifluoperazine. Both early and late apoptotic cells were counted.
The next assay deals with CL83 spheroids. Briefly: Tumor spheroid assay. The conditions noted are these: 48 hr.
The test system of assay [2] is CL141 cells. Briefly: Aldefluor assay (ALDH-positive cells). As for the experimental part:
(§1) High aldehyde dehydrogenase (ALDH) enzyme activity was used to detect lung CSC populations in this study. The Aldefluor assay was performed according to the manufacturer's guidelines (StemCell Technologies). Briefly, single cells obtained from cell cultures were incubated in an Aldefluor assay buffer containing an ALDH substrate (bodipy-aminoacetaldehyde, BAAA) for 50 minutes at 37° C. As a negative control, a fraction of cells from each sample was incubated under identical conditions in the presence of an ALDH inhibitor (diethylaminobenzaldehyde, DEAB). Flow cytometry was used to measure the ALDH-positive cell population.

The test system of a further assay is CL152 cells. Briefly: Aldefluor assay (ALDH-positive cells). The conditions noted are these: 5 μM, untreated 3.73%. The protocol:
as §1

The next assay concerns CL141 spheroids. The experiment in a line: Soft agar assay (colony formation). The conditions noted are these: 12 days, control 92. As for the experimental part: Freshly sorted CL141 side population (SP) and non-side population (NSP) cells were counted and plated in triplicate at 200 cells per well in six-well plates coated with 1% agarose. Anchorage-independent growth was assessed after incubation for 10-14 days in culture media with or without trifluoperazine (0, 5 and 10 μM), which was replaced every 4 days. Plates were stained with 0.005% crystal violet, and the colonies were counted manually under a microscope and photographed.

The test system of a further assay is CL97 spheroids. The experiment in a line: Western blotting analysis of cancer spheroids. As for the experimental part: Cells were lysed in lysis buffer (50 mM Tris-HCl, pH 7.4, 5 mM MgCl2, 1% Nonidet P-40, 150 mM NaCl, 1 mM phenylmethylsulfonyl fluoride). Total protein was isolated and subjected to SDS polyacrylamide gel electrophoresis and electrotransfered onto PVDF membranes (Millipore). Primary antibodies Bax, Bak, Bcl-2, XIAP, Mcl-1, Cleaved Caspase 9, Caspase 3, […], c-Myc, CD44, cyclin D1 were obtained from Cell Signaling, Met was purchased from Santa Cruz and CD133 was from Miltenyi Biotec, and secondary antibodies for anti-mouse and anti-rabbit horseradish preoxidase (HRP)-conjugation were from Chemicon International. The protein detection was performed with enhanced chemiluminescence (ECL™) method captured by a Luminescence Imaging System (LAS-4000™, Fuji Photo Film Co., Ltd).

As to `CN1CCN(CCCN2c3ccccc3Sc3ccc(C(F)(F)F)cc32)CC1` [Trifluoperazine], in the assay with CL141 cells [1], the “Annexin V-positive cells” value is reported as “dose-dependent increase”. In the assay on CL83 spheroids, the “size and number of spheroids” value is recorded as “dose-dependently decreased”. Moreover, the “ALDH-positive cell population after treatment” value in the assay with CL141 cells [2] (CL141 cells, 5 μM, untreated 4.31%) stood at 0.84%; in the assay with CL152 cells, 1.08%. For the same molecule, the “percentage of ALDH+ CL141 cells” value with CL141 cells [2] (trifluoperazine 10 μM alone or combined with 5 μM gefitinib) is reported as “moderately decreased”. Further, the “mean colony number on soft agar” value in the assay with CL141 spheroids (5 μM) turned out to be 32; with CL141 spheroids (10 μM) it was 8. For the same molecule, the “Bax, Bak, cleaved PARP, caspase-3 and caspase-9 levels” value with CL97 spheroids (CL97 cancer spheroids) is “increased dose-dependently”. In the assay on CL97 spheroids (CL97 cancer spheroids), the “anti-apoptotic Bcl-2, XIAP and Mcl-1 levels” value is listed as “decreased”. Moreover, the “CD44 and CD133 expression” value in the assay on CL97 spheroids (CL97 spheroids, 0, 2.5, 5 and 10 μM, 48 hours) is recorded as “dose-dependently down-regulated”. Besides, the “Cyclin D1, c-Myc and c-Met expression” value with CL97 spheroids (CL97 spheroids, 48 hr) was “decreased”.
